Source: US6780875B2, “Quinoline-4-carboxamide derivatives as NK-3 and NK-2 receptor antagonists” (SmithKline Beecham S.p.A., priority 1998, dated 2004)
Where a name gives a salt, the structure may show the parent alone.

SMILES	melting point
CC(C)N1CCN(Cc2c(-c3ccccc3)nc3ccccc3c2C(=O)N[C@@H](C)C2CCCCC2)CC1 (as salt: hydrochloride) [Example 4, 3-(4-Isopropyl-piperazin-1-ylmethyl)-2-phenyl-quinoline-4-carboxylic acid ((S)-1-cyclohexyl-ethyl)-amide]	180 to 183 °C
C[C@H](NC(=O)c1c(CN2CCC(N3CCOCC3)CC2)c(-c2ccccc2)nc2ccccc12)C1CCCCC1 [Example 42, 3-(4-Morpholin-4-yl-piperidin-1-ylmethyl)-2-phenyl-quinoline-4-carboxylic acid ((S)-1-cyclohexyl-ethyl)-amide]	135 to 137 °C
C[C@H](NC(=O)c1c(CN2CCN(C(=NC#N)N3CCCC3)CC2)c(-c2ccccc2)nc2ccccc12)C1CCCCC1 [Example 76, 3-[4-(1-Cyanoimino-1-pyrrolidin-1-yl-methyl)-piperazin-1-ylmethyl]-2-phenyl-quinoline-4-carboxylic acid ((S)-1-cyclohexyl-ethyl)-amide]	154 to 155 °C
C[C@H](NC(=O)c1c(CN2CCN(C(=C[N+](=O)[O-])N3CCCC3)CC2)c(-c2ccccc2)nc2ccccc12)C1CCCCC1 [Example 81, 3-[4-(2-Nitro-1-pyrrolidin-1-yl-vinyl)-piperazin-1-ylmethyl]-2-phenyl-quinoline-4-carboxylic acid ((S)-1-cyclohexyl-ethyl)-amide]	164 to 165 °C
CC(C)C(=O)N1CCN(Cc2c(-c3ccccc3)nc3ccccc3c2C(=O)N[C@@H](C)C2CCCCC2)CC1 [Example 25, 3-[4-(2-Methyl-propanoyl)-piperazin-1-ylmethyl]-2-phenyl-quinoline-4-carboxylic acid ((S)-1-cyclohexyl-ethyl)-amide]	149 to 151 °C
CCN(CC)CCC(=O)N1CCN(Cc2c(-c3ccccc3)nc3ccccc3c2C(=O)N[C@@H](C)C2CCCCC2)CC1 [Example 47, 3-[4-(3-Diethylamino-propanoyl)-piperazin-1-ylmethyl]-2-phenyl-quinoline-4-carboxylic acid ((S)-1-cyclohexyl-ethyl)-amide]	104 to 106 °C
CC[C@H](NC(=O)c1c(CN2CCC(N3CCCCC3)CC2)c(-c2ccccc2)nc2cc(O)ccc12)c1ccccc1 [Example 95, 3-[1,4′]Bipiperidinyl-1′-ylmethyl-7-hydroxy-2-phenyl-quinoline-4-carboxylic acid ((S)-1-phenyl-propyl)-amide]	158 to 162 °C
CC[C@H](NC(=O)c1c(CN2CCC(N3CCCCC3)CC2)c(-c2ccccc2)nc2c(Cl)c(O)ccc12)c1ccccc1 [Example 89, 3-[1,4′]Bipiperidinyl-1′-ylmethyl-8-chloro-7-hydroxy-2-phenyl-quinoline-4-carboxylic acid ((S)-1-phenyl-propyl)-amide]	209 to 216 °C (dec.)
CC[C@H](NC(=O)c1c(CN2CCC(N3CCN(C)CC3)CC2)c(-c2ccccc2)nc2ccccc12)c1ccccc1 [Example 62, 3-[4-(4-Methyl-piperazin-1-yl)-piperidin-1-ylmethyl]-2-phenyl-quinoline-4-carboxylic acid ((S)-1-phenyl-propyl)-amide]	85 to 100 °C
CC[C@H](NC(=O)c1c(CN2CCN(C(=O)c3ccccc3)CC2)c(-c2ccccc2)nc2ccccc12)c1ccccc1 [Example 31, 2-Phenyl-3-[4-(1-phenyl-methanoyl)-piperazin-1-ylmethyl]-quinoline-4-carboxylic acid ((S)-1-phenyl-propyl)-amide]	180 to 182 °C
CC[C@H](NC(=O)c1c(CN2CCN(C(C)=O)CC2)c(-c2ccccc2)nc2ccccc12)c1ccccc1 [Example 23, 3-(4-Acetyl-piperazin-1-ylmethyl)-2-phenyl-quinoline-4-carboxylic acid ((S)-1-phenyl-propyl)-amide]	117 to 119 °C
CC[C@H](NC(=O)c1c(C(c2ccccc2)(N2CCCCC2)N(C)C(C)=O)c(-c2ccccc2)nc2ccccc12)c1ccccc1 (stereo partly drawn) [Example 11, 3-[(Acetyl-methyl-amino)-phenyl-piperidin-1-ylmethyl]-2-phenyl-quinoline-4-carboxylic acid ((S)-1-phenyl-propyl)-amide]	100 °C (dec.)
CNC(=S)N1CCN(Cc2c(-c3ccccc3)nc3ccccc3c2C(=O)N[C@@H](C)C2CCCCC2)CC1 [Example 75, 3-(4-Methylthiocarbamoyl-piperazin-1-ylmethyl)-2-phenyl-quinoline-4-carboxylic acid ((S)-1-cyclohexyl-ethyl)-amide]	204 to 206 °C
CNC(=NC#N)N1CCN(Cc2c(-c3ccccc3)nc3ccccc3c2C(=O)N[C@@H](C)C2CCCCC2)CC1 [Example 73, 3-[4-(-1-Cyanoimino-1-methylamino-methyl)-piperazin-1-ylmethyl]-2-phenyl-quinoline-4-carboxylic acid ((S)-1-cyclohexyl-ethyl)amide]	175 to 180 °C
C[C@H](NC(=O)c1c(CN2CCN(CCc3ccccc3)CC2)c(-c2ccccc2)nc2ccccc12)C1CCCCC1 (as salt: HCl) [Example 5, 3-(4-Phenethyl-piperazin-1-ylmethyl)-2-phenyl-quinoline-4-carboxylic acid ((S)-1-cyclohexyl-ethyl)-amide]	168 to 171 °C
C[C@H](NC(=O)c1c(CN2CCC(N3CCC(O)CC3)CC2)c(-c2ccccc2)nc2ccccc12)C1CCCCC1 [Example 43, 3-(4-Hydroxy-[1,4′]bipiperidinyl-1′-ylmethyl)-2-phenyl-quinoline-4-carboxylic acid ((S)-1-cyclohexyl-ethyl)-amide]	150 to 160 °C

SMILES	melting point
C[C@H](NC(=O)c1c(CN2CCN(C(=O)Cc3c[nH]cn3)CC2)c(-c2ccccc2)nc2ccccc12)C1CCCCC1	178 to 210 °C
C[C@H](NC(=O)c1c(CN2CCC3(CC2)OCCO3)c(-c2ccccc2)nc2ccccc12)C1CCCCC1 [Example 61, 3-(1,4-Dioxa-8-aza-spiro[4.5]dec-8-ylmethyl)-2-phenyl-quinoline-4-carboxylic acid ((S)-1-cyclohexyl-ethyl)-amide]	184 to 185 °C
CC[C@H](NC(=O)c1c(CN2CCC(c3ccccc3)CC2)c(-c2ccccc2)nc2ccccc12)c1ccccc1 [Example 2, 2-Phenyl-3-(4-phenyl-piperidin-1-ylmethyl)-quinoline-4-carboxylic acid ((S)-1-phenyl-propyl)-amide]	90 to 95 °C
CC[C@H](NC(=O)c1c(CN2C[C@@H](C)N[C@@H](C)C2)c(-c2ccccc2)nc2ccccc12)c1ccccc1 [Example 60, 3-((3R,5S)-3,5-Dimethyl-piperazin-1-ylmethyl)-2-phenyl-quinoline-4-carboxylic acid ((S)-1-phenyl-propyl)-amide]	114 to 120 °C
C[C@H](NC(=O)c1c(CN2CCN(C3=NCCS3)CC2)c(-c2ccccc2)nc2ccccc12)C1CCCCC1 [Example 74, 3-[4-(4,5-Dihydro-thiazol-2-yl)-piperazin-1-ylmethyl]-2-phenyl-quinoline-4-carboxylic acid ((S)-1-cyclohexyl-ethyl)-amide]	174 to 176 °C
C[C@H](NC(=O)c1c(CN2CCC(C(N)=O)CC2)c(-c2ccccc2)nc2ccccc12)C1CCCCC1 [Example 36, 3-(4-Carbamoyl-piperidin-1-ylmethyl)-2-phenyl-quinoline-4-carboxylic acid ((S)-1-cyclohexyl-ethyl)-amide]	219 to 221 °C
CC(C)[C@H](NC(=O)c1c(CN2CCN(C(=O)c3ccccc3C(=O)O)CC2)c(-c2ccccc2)nc2ccccc12)c1ccccc1 [Example 86, 2-(1-{4-[4-((S)-2-Methyl-1-phenyl-propylcarbamoyl)-2-phenyl-quinolin-3-ylmethyl]-piperazin-1-yl}-methanoyl)-benzoic acid]	189 to 191 °C
CC[C@H](NC(=O)c1c(CN2CCC(N)CC2)c(-c2ccccc2)nc2ccccc12)c1ccccc1 [Example 55, 3-(4-Amino-piperidin-1-ylmethyl)-2-phenyl-quinoline-4-carboxylic acid ((S)-1-phenyl-propyl)-amide]	98 to 102 °C
COCCN1CCN(Cc2c(-c3ccccc3)nc3ccccc3c2C(=O)N[C@@H](C)C2CCCCC2)CC1 [Example 17, 3-[4-(2-Methoxy-ethyl)-piperazin-1-ylmethyl]-2-phenyl-quinoline-4-carboxylic acid ((S)-1-cyclohexyl-ethyl)-amide]	113 to 115 °C
CC[C@H](NC(=O)c1c(CN2CCN(S(N)(=O)=O)CC2)c(-c2ccccc2)nc2ccccc12)c1ccccc1 [Example 90, 2-Phenyl-3-(4-sulfamoyl-piperazin-1-ylmethyl)-quinoline-4-carboxylic acid ((S)-1-phenyl-propyl)-amide]	133 °C (dec.)
C[C@H](NC(=O)c1c(CN2CCN(C(=O)CN3CCN(C)CC3)CC2)c(-c2ccccc2)nc2ccccc12)C1CCCCC1 [Example 48, 3-{4-[2-(4-Methyl-piperazin-1-yl)-ethanoyl]-piperazin-1-ylmethyl}-2-phenyl-quinoline-4-carboxylic acid ((S)-1-cyclohexyl-ethyl)-amide]	162 to 163 °C
COc1ccc2c(C(=O)N[C@@H](C)C3CCCCC3)c(CN3CCC(N4CCCCC4)CC3)c(-c3ccccc3)nc2c1 [Example 88, 3-[1,4′]Bipiperidinyl-1′-ylmethyl-7-methoxy-2-phenyl--quinoline-4-carboxylic acid ((S)-1-cyclohexyl-ethyl)-amide]	139 to 144 °C (dec.)
C[C@H](NC(=O)c1c(CN2CCN(C(=O)CCC(=O)O)CC2)c(-c2ccccc2)nc2ccccc12)C1CCCCC1 [Example 83, 4-{4-[4-((S)-1-Cyclohexyl-ethylcarbamoyl)-2-phenyl-quinolin-3-ylmethyl]-piperazin-1-yl}-4-oxo-butyric acid]	208 to 209 °C
CC[C@H](NC(=O)c1c(CN2CCC(n3c(=O)[nH]c4ccccc43)CC2)c(-c2ccccc2)nc2ccccc12)c1ccccc1	195 to 197 °C
CC[C@H](NC(=O)c1c(CN2CCC(N3CCCCC3)CC2)c(-c2ccccc2)nc2ccccc12)c1ccccc1 (as salt: HCl) [Example 14, 3-[1,4′]Bipiperidinyl-1′-ylmethyl-2-phenyl-quinoline-4-carboxylic acid ((S)-1-phenyl-propyl)-amide]	182 to 185 °C
